{"source": "patent US20190387748A1", "about": "“COMPOSITIONS AND RELATED METHODS FOR AGRICULTURE” (priority 2017, published 2019)", "key": {"[1]": {"tested_on": "Sitophilus zeamais weevils", "assay": "Weevil survival monitoring", "type": "in vivo", "settings": "adult S. zeamais mating pairs; 250 μg/ml or 2.5 mg/ml ciprofloxacin; 18 days"}, "[2]": {"tested_on": "Sitophilus zeamais weevils", "assay": "Assessment of offspring: dissection of corn kernels (F1 weevil development)", "type": "in vivo", "settings": "after 25 days"}, "[3]": {"tested_on": "Escherichia coli DH5α", "settings": "kernels soaked in 2.5 or 0.25 mg/ml ciprofloxacin; overnight", "method": "The kernels were soaked for 1.5 hours as described herein. After soaking, kernels were air dried and assayed to determine whether the antibiotic was able to coat and penetrate the kernel. To test this, a concentrated sample of Escherichia coli DH5α in water was spread onto 5 Luria Broth (LB) plates. […] The plates were incubated overnight at 37 degrees C. and bacterial growth and/or zone(s) of inhibition were assessed the next day.\nA concentrated culture of E. coli was then spread onto LB plates and one of the coated kernels was then placed onto the center of the plate. The plates were incubated overnight, and bacterial growth was assessed the next day.\nThe plates were incubated overnight and the next day bacterial growth was assessed."}, "[4]": {"tested_on": "Sitophilus zeamais weevils", "assay": "Emergence of F1 weevils (fecundity)", "settings": "2.5 mg/ml ciprofloxacin; till day 43"}, "[5]": {"tested_on": "Acyrthosiphon pisum aphids", "assay": "Aphid survival monitoring", "type": "in vivo", "description": "For each treatment, 33 aphids were placed onto each leaf. Artificial diet feeding systems were changed every 2-3 days throughout the experiment. Aphids were monitored daily for survival and dead aphids were removed from the deep petri dish housing the artificial feeding system when they were discovered.\n(§1) Each treatment group received approximately the same number of individuals from each of the collection plant. For each treatment, 20 aphids were placed onto each leaf. Aphids were monitored daily for survival and dead aphids were removed when they were discovered. In addition, the developmental stage (1st, 2nd, 3rd, 4th, 5th instar, and 5R, representing a reproducing 5th instar) was determined daily throughout the experiment. Pictures of aphids were taken throughout the experiment to evaluate size differences between treatment groups.\n(Vroma vicia faba from Johnny's Selected Seeds) in a climate-controlled incubator (16 h light/8 h dark photoperiod; 60±5% RH; 25±2° C.). Prior to being used for aphid rearing, fava bean plants were grown in potting soil at 24° C. with 16 h of light and 8 h of darkness. To limit maternal effects or health differences between plants, 5-10 adults from different plants were distributed among 10 two-week-old plants, and allowed to multiply to high density for 5-7 days. For experiments, first and second instar aphids were collected from healthy plants and divided into 2 different treatment groups: 1) negative control (leaf injected with water plus blue food coloring) and 2) leaf injected with 50 μg/ml rifampicin in water plus blue food coloring. Each treatment group received approximately the same number of individuals from each of the collection plants. For treatment, rifampicin stock solution (25 mg/ml in 100% methanol) was diluted to 50 μg/ml in water plus blue food coloring. The solution was then placed into a 1.5 ml Eppendorf tube with a fava bean stem perfused with the solutions and the opening of the tube was closed using parafilm. This feeding system was then placed into a deep petri dish (Fisher Scientific, Cat# FB0875711) and aphids were applied to the leaves of the plant. For each treatment, 74-81 aphids were placed onto each leaf. The feeding systems were changed every 2-3 days throughout the experiment. Aphids were monitored daily for survival and dead aphids were removed from the deep petri dish when they were discovered. In addition, the developmental stage (1st, 2nd, 3rd, 4th, 5th and 5R (5th that has reproduced) instar) was determined daily throughout the experiment.\nFor each treatment, 49-50 aphids were placed onto each leaf. The feeding systems were changed every 2-3 days throughout the experiment. Aphids were monitored daily for survival and dead aphids were removed from the deep petri dish when they were discovered.\nFor each treatment, 76-80 aphids were placed onto each leaf. The feeding systems were changed every 2-3 days throughout the experiment. Aphids were monitored daily for survival and dead aphids were removed from the deep petri dish when they were discovered.\nFor each treatment, 50-51 aphids were placed onto each leaf. The feeding systems were changed every 2-3 days throughout the experiment. Aphids were monitored daily for survival and dead aphids were removed from the deep petri dish when they were discovered.\nFor each treatment, 56-59 aphids were placed onto each leaf. The feeding systems were changed every 2-3 days throughout the experiment. Aphids were monitored daily for survival and dead aphids were removed from the deep petri dish when they were discovered.\nFor each treatment, 57-59 aphids were placed onto each leaf. The feeding systems were changed every 2-3 days throughout the experiment. Aphids were monitored daily for survival and dead aphids were removed from the deep petri dish when they were discovered.\nFor each treatment, 15-87 aphids were placed onto each leaf. Artificial diet feeding systems were changed every 2-3 days throughout the experiment."}, "[6]": {"tested_on": "Buchnera", "assay": "qPCR of Buchnera/aphid DNA copy numbers (symbiont titer)", "type": "in vivo, Buchnera aphidicola", "method": "(§2) After 7 days of treatment, DNA was extracted from multiple aphids from each treatment group. Briefly, the aphid body surface was sterilized by dipping the aphid into a 6% bleach solution for approximately 5 seconds. Aphids were then rinsed in sterile water and DNA was extracted from each individual aphid using a DNA extraction kit (Qiagen, DNeasy kit) according to manufacturer's instructions. DNA concentration was measured using a nanodrop nucleic acid quantification, and Buchnera and aphid DNA copy numbers were measured by qPCR.\nAfter 6 days of treatment, DNA was extracted from multiple aphids from each treatment group and qPCR for quantifying Buchnera levels was done as described in the previous Example.\nas §2, with “8” for “7”\nas §2, with “After 8” for “After 7”, “from the remaining” for “from multiple”, “aphids in” for “aphids from”\nas §2, with “Briefly,” for “After 7 days of treatment, DNA was extracted from multiple aphids from each treatment group. Briefly,”\nas §2, with “Briefly,” for “After 7 days of treatment, DNA was extracted from multiple aphids from each treatment group. Briefly,”\nas §2, with “3” for “7”, “the remaining living” for “multiple”\nas §2, with “After 5” for “After 7”, “from the remaining” for “from multiple”, “aphids in” for “aphids from”\nAt 5 days post-treatment, DNA was extracted from several aphids in each treatment group. Briefly, the aphid body surface was sterilized by dipping the aphid into a 6% bleach solution for approximately 5 seconds."}, "[7]": {"tested_on": "Acyrthosiphon pisum aphids", "assay": "Aphid developmental stage monitoring", "type": "in vivo", "method": "(§3) In addition, the developmental stage (1st, 2nd, 3rd, 4th, 5th instar) was determined daily throughout the experiment. Once an aphid reached the 4th instar stage, they were given their own artificial feeding system in a deep petri dish so that fecundity could be monitored once they reached adulthood.\nas §1\n(Vroma vicia faba from Johnny's Selected Seeds) in a climate-controlled incubator (16 h light/8 h dark photoperiod; 60±5% RH; 25±2° C.). Prior to being used for aphid rearing, fava bean plants were grown in potting soil at 24° C. with 16 h of light and 8 h of darkness. To limit maternal effects or health differences between plants, 5-10 adults from different plants were distributed among 10 two-week-old plants, and allowed to multiply to high density for 5-7 days. […] Aphids were monitored daily for survival and dead aphids were removed from the deep petri dish when they were discovered. In addition, the developmental stage (1st, 2nd, 3rd, 4th, 5th and 5R (5th that has reproduced) instar) was determined daily throughout the experiment.\nIn addition, the developmental stage (1st, 2nd, 3rd, 4th, 5th, and 5R (5th that has reproduced) instar) was determined daily throughout the experiment.\nIn addition, the developmental stage (1st, 2nd, 3rd, 4th, 5th, and 5R (5th instar aphids that are reproducing) instar) was determined daily throughout the experiment.\nIn addition, the developmental stage (1st, 2nd, 3rd, 4th, and 5th instar) was determined daily throughout the experiment.\nas §3, with “5th, and 5R (5th that has reproduced)” for “5th”\nFor each treatment, 30 aphids were placed onto each leaf in triplicate. […] Aphids were monitored daily for survival and dead aphids were removed from the deep petri dish when they were discovered. In addition, the developmental stage (1st, 2nd, 3rd, 4th, 5th, and 5R (5th instar aphids that are reproducing) instar) was determined daily throughout the experiment. […]"}, "[8]": {"settings": "synthetic cationic NCR peptides; cited from earlier work"}, "[9]": {"tested_on": "gram-negative and gram-positive bacteria as well as fungi", "settings": "cited from earlier work"}}, "note": "Entries after “also recorded” stand apart in the source; their conditions may differ.", "data": [{"molecule": "O=C(O)c1cn(C2CC2)c2cc(N3CCNCC3)c(F)cc2c1=O", "note": "[ciprofloxacin]", "values": [{"measurement": "Weevil survival", "setting": "[1]", "result": "all weevils remained alive for the course of the experiment"}, {"measurement": "Number of offspring found in dissected corn kernels", "setting": "[2]; 250 ug/ml ciprofloxacin", "result": 13}, {"measurement": "Offspring in the larval form", "setting": "[2]; 250 ug/ml ciprofloxacin", "result": 38, "unit": "%"}, {"measurement": "Number of offspring found in dissected corn kernels", "setting": "[2]; 2.5 mg/ml ciprofloxacin", "result": 20}, {"measurement": "Offspring in the larval form", "setting": "[2]; 2.5 mg/ml ciprofloxacin", "result": 65, "unit": "%"}, {"measurement": "E. coli growth on plates with entire soaked corn kernels", "setting": "[3]", "result": "no bacteria grew"}, {"measurement": "F1 offspring emerged", "setting": "[4]", "result": "much less offspring that emerged"}]}, {"molecule": "Cc1cc2c(C(C)C)c(O)c(O)c(C=O)c2c(O)c1-c1c(C)cc2c(C(C)C)c(O)c(O)c(C=O)c2c1O", "note": "[gossypol, gossypol acetic acid]", "values": [{"measurement": "Time by which all aphids succumbed to treatment", "setting": "[5]; 0.5% gossypol", "result": "≤ 4", "unit": "days"}, {"measurement": "Time of treatment after which aphids began dying", "setting": "[5]; 0.5% gossypol", "result": 2, "unit": "days"}, {"measurement": "Fold less Buchnera/aphid DNA copies vs control", "setting": "[6]; 0.25 and 0.5% of gossypol, through plants, 5 or 13 days", "result": "~4", "unit": "fold"}]}, {"molecule": "CC(=O)CCC(=O)O", "note": "[levulinic acid]", "values": [{"measurement": "Aphid development", "setting": "[7]; 0.03 or 0.3% levulinic acid", "result": "delayed aphid development"}, {"measurement": "Aphid mortality", "setting": "[5]; 0.03% levulinic acid, 11-day experiment", "result": "higher mortality compared to control treated aphids, although the difference did not reach statistical significance"}, {"measurement": "Insect survival", "setting": "[5]; 0.03 or 0.3% levulinic acid", "result": "decrease in insect survival"}, {"measurement": "Aphid survival", "setting": "[5]; 0.3% levulinic acid, 11-day experiment", "result": "survival was significantly less"}, {"measurement": "Fold less Buchnera/aphid DNA copies vs control", "setting": "[6]; 0.03 or 0.3% levulinic acid in water, 7 days of treatment", "result": "~6", "unit": "fold"}, {"measurement": "Buchnera/aphid ratio", "setting": "[6]; 0.03 or 0.3% levulinic acid, seven and eleven days post-treatment", "result": "reduced endosymbiotic Buchnera"}]}, {"molecule": "O=C/C=C/c1ccccc1", "note": "[trans-cinnemaldehyde]", "values": [{"measurement": "Aphid developmental stage", "setting": "[7]; LSR-1 1st and 2nd instar, 0.05%, 0.5%, 5% trans-cinnemaldehyde in water, leaf perfusion and through plants, by 3 days", "result": "delayed aphid development; also recorded: none of the aphids matured past the second instar stage"}, {"measurement": "Aphid survival rate", "setting": "[5]; 0.05%, 0.5%, and 5% trans-cinnemaldehyde", "result": "dose-dependent decrease in survival; also recorded: significantly lower"}, {"measurement": "Symbiont titer (Buchnera DNA to aphid DNA)", "setting": "[6]; 0.05%, 0.5%, and 5% trans-cinnemaldehyde, 3 days post-treatment", "result": "reduced endosymbiotic Buchnera"}, {"measurement": "Fold less Buchnera/aphid DNA copies vs control", "setting": "[6]; 0.5 and 5% of trans-cinnemaldehyde, 3 days", "result": "~870", "unit": "fold"}, {"measurement": "Buchnera/aphid DNA copies", "setting": "[6]; lowest concentration of trans-cinnemaldehyde (0.5%), 3 days", "result": "high ratios of Buchnera/aphid DNA copies"}]}, {"molecule": "NCR335: cationic nodule C-rich peptide (RQMIILRLNTTFRPLNFKMLRFWGQ)", "values": [{"measurement": "pl", "setting": "[8]", "result": 11.22}, {"measurement": "Antimicrobial activity", "setting": "[9]", "result": "effective against gram-negative and gram-positive bacteria as well as fungi"}]}]}
